Reference: paper PMC12122562, “Phase 1 studies of the indenoisoquinolines LMP776 and LMP744 in patients with solid tumors and lymphomas” (Cancer Chemotherapy and Pharmacology, 2025)
“Also recorded” adds a separate entry of the source.

Tested on: patients with advanced, refractory solid tumors or lymphomas
Assay: Phase 1 trial of LMP744 (NCT03030417): safety, MTD, adverse events (CTCAE v4.03/v5.0)
Type: in vivo, human
From the text: The primary objectives of each study included establishing safety, tolerability, MTD, and recommended phase 2 dose (RP2D) of LMP776 and LMP744 as single agents. The LMP744 study included evaluation of tumor pharmacodynamics as an exploratory objective. Both trials were opened at the National Cancer Institute’s (NCI) Developmental Therapeutics Clinic, and the LMP744 trial was also opened at the University of Pittsburgh Hillman Cancer Center. Both trials used an accelerated dose escalation designs (Simon design 4 for LMP776, Simon design 3 for LMP744) to determine the MTD [30]. Dose levels are listed in Supplementary Table 1. Once the MTD was determined, additional patients were enrolled at that DL in an expansion cohort to evaluate pharmacodynamic changes as described below. LMP776 and LMP744 were administered intravenously through a central line via a 1-h infusion on days 1–5 (QDx5) in 28-day cycles. Both agents were supplied by the NCI Division of Cancer Treatment and Diagnosis (DCTD). The studies were approved by the NIH Institutional Review Board and conducted in accordance with the Declaration of Helsinki.
Patients were enrolled in either NCT01051635 evaluating LMP776 or NCT03030417 evaluating LMP744; these trials were conducted sequentially. Both trials required that patients be ≥ 18 years of age with solid tumors or lymphomas refractory to other treatments. Patients were required to have adequate performance status (Eastern Cooperative Oncology Group [ECOG] performance status ≤ 2), bone marrow function, and organ function as described in the Supplementary Methods. Patients in expansion phases at the MTD were required to have disease amenable to biopsy collection and be willing to undergo research biopsies. All patients provided written informed consent.
Tumor responses were evaluated by serial CT scans according to RECIST v1.1 criteria. CT scans were performed every other cycle during the first year, then every 3 cycles after the first year. Toxicities associated with LMP776 were evaluated according to criteria specified in CTCAE version 4.0; toxicities associated with LMP744 were evaluated according to the criteria specified in CTCAE version 4.03 (on or before March 31, 2018) or version 5.0 (on or after April 1, 2018). Criteria for all versions can be found at https://ctep.cancer.gov/protocolDevelopment/electronic_applications/ctc.htm. Any patient who received a dose of either agent was considered eligible for toxicity evaluation.

With `COc1cc2c3c(n(CCCNCCO)c(=O)c2cc1OC)-c1cc2c(cc1C3=O)OCO2` [LMP744] the “Weight loss, patients” value (grade 2, DL6) was 4, the “White blood cell count increased, patients” value (grade 2, DL6) was 1 and the “Lymphopenia (Lymphocyte count decreased), patients” value (grade 2, DL6 (n = 18; suppl. n=17)) was 1. For the same compound, the “Alkaline phosphatase increased, patients” value (grade 2, DL7) was 1, the “Anemia, patients” value (grade 2, DL7) was 7 and the “Anorexia, patients” value (grade 2, DL7) was 1. For the same compound, the “Blood bilirubin increased, patients” value (grade 2, DL7) was 1, the “Creatinine increased, patients” value (grade 2, DL7) was 2 and the “Dehydration, patients” value (grade 2, DL7) was 1. The “Fatigue, patients” value (grade 2, DL7) was 2, the “Hypomagnesemia, patients” value (grade 2, DL7) was 1 and the “Hypophosphatemia, patients” value (grade 2, DL7) was 1. For the same compound, the “INR increased, patients” value (grade 2, DL7) was 1, the “Leukopenia (White blood cell count decreased), patients” value (grade 2, DL7) was 1 and the “Nausea, patients” value (grade 2, DL7) was 1. For the same compound, the “Platelet count decreased, patients” value (grade 2, DL7) was 1, the “Vomiting, patients” value (grade 2, DL7) was 1 and the “Lymphopenia (Lymphocyte count decreased), patients” value (grade 2, DL7 (n = 11)) was 4. For the same compound, the “Alanine aminotransferase increased, patients” value (grade 2, all DLs (n=35)) was 2, the “Alkaline phosphatase increased, patients” value (grade 2, all DLs (n=35)) was 3 and the “Anemia, patients” value (grade 2, all DLs (n=35)) was 13. For the same compound, the “Anorexia, patients” value (grade 2, all DLs (n=35)) was 2, the “Aspartate aminotransferase increased, patients” value (grade 2, all DLs (n=35)) was 1 and the “Blood bilirubin increased, patients” value (grade 2, all DLs (n=35)) was 2. For the same compound, the “Constipation, patients” value (grade 2, all DLs (n=35)) was 1, the “Creatinine increased, patients” value (grade 2, all DLs (n=35)) was 5 and the “Dehydration, patients” value (grade 2, all DLs (n=35)) was 2. For the same compound, the “Diarrhea, patients” value (grade 2, all DLs (n=35)) was 1, the “Dry skin, patients” value (grade 2, all DLs (n=35)) was 1 and the “Edema - limbs, patients” value (grade 2, all DLs (n=35)) was 1. The “Fatigue, patients” value (grade 2, all DLs (n=35)) was 8, the “GGT increased, patients” value (grade 2, all DLs (n=35)) was 4 and the “Hyperglycemia, patients” value (grade 2, all DLs (n=35)) was 1. The “Hypoalbuminemia, patients” value (grade 2, all DLs (n=35)) was 1, the “Hypomagnesemia, patients” value (grade 2, all DLs (n=35)) was 2 and the “Hyponatremia, patients” value (grade 2, all DLs (n=35)) was 1. The “Hypophosphatemia, patients” value (grade 2, all DLs (n=35)) was 6, the “Hypothyroidism, patients” value (grade 2, all DLs (n=35)) was 1 and the “INR increased, patients” value (grade 2, all DLs (n=35)) was 1. The “Infections and infestations - NOS, patients” value (grade 2, all DLs (n=35)) was 2, the “Infusion site extravasation, patients” value (grade 2, all DLs (n=35)) was 1 and the “Lymphocyte count decreased, patients” value (grade 2, all DLs (n=35)) was 6. For the same compound, the “Nausea, patients” value (grade 2, all DLs (n=35)) was 4, the “Neutropenia, patients” value (grade 2, all DLs (n=35)) was 3 and the “Platelet count decreased, patients” value (grade 2, all DLs (n=35)) was 3. For the same compound, the “Proteinuria, patients” value (grade 2, all DLs (n=35)) was 2, the “Thrombophlebitis - superficial, patients” value (grade 2, all DLs (n=35)) was 1 and the “Urinary tract infection, patients” value (grade 2, all DLs (n=35)) was 1. For the same compound, the “Vomiting, patients” value (grade 2, all DLs (n=35)) was 6, the “Weight loss, patients” value (grade 2, all DLs (n=35)) was 4 and the “White blood cell count decreased, patients” value (grade 2, all DLs (n=35)) was 4. For the same compound, the “White blood cell count increased, patients” value (grade 2, all DLs (n=35)) was 1, the “Dehydration, patients” value (grade 3, DL6) was 1 and the “Febrile Neutropenia, patients” value (grade 3, DL6) was 1. The “GGT increased, patients” value (grade 3, DL6) was 1, the “Hypokalemia, patients” value (grade 3, DL6) was 1 and the “Hypoxia, patients” value (grade 3, DL6) was 1. The “Lymphopenia (Lymphocyte count decreased), patients” value (grade 3, DL6) was 5, the “Nausea, patients” value (grade 3, DL6) was 1 and the “Neutropenia, patients” value (grade 3, DL6) was 1. The “Aspartate aminotransferase increased, patients” value (grade 3, DL7) was 1, the “Dehydration, patients” value (grade 3, DL7) was 1 and the “GGT increased, patients” value (grade 3, DL7) was 1. For the same compound, the “Hypokalemia, patients” value (grade 3, DL7) was 1, the “Lymphopenia (Lymphocyte count decreased), patients” value (grade 3, DL7) was 2 and the “Nausea, patients” value (grade 3, DL7) was 1. For the same compound, the “Aspartate aminotransferase increased, patients” value (grade 3, all DLs (n=35)) was 1, the “Dehydration, patients” value (grade 3, all DLs (n=35)) was 1 and the “Febrile Neutropenia, patients” value (grade 3, all DLs (n=35)) was 1. The “GGT increased, patients” value (grade 3, all DLs (n=35)) was 2, the “Hypokalemia, patients” value (grade 3, all DLs (n=35)) was 2 and the “Hypoxia, patients” value (grade 3, all DLs (n=35)) was 1. For the same compound, the “Lymphocyte count decreased, patients” value (grade 3, all DLs (n=35)) was 7, the “Nausea, patients” value (grade 3, all DLs (n=35)) was 2 and the “Neutropenia, patients” value (grade 3, all DLs (n=35)) was 1. The “Leukopenia (White blood cell count decreased), patients” value (grade 4, DL6) was 1, the “Lymphopenia (Lymphocyte count decreased), patients” value (grade 4, DL6) was 1 and the “Neutropenia, patients” value (grade 4, DL6) was 1. For the same compound, the “Lymphocyte count decreased, patients” value (grade 4, all DLs (n=35)) was 1, the “Neutropenia, patients” value (grade 4, all DLs (n=35)) was 1 and the “White blood cell count decreased, patients” value (grade 4, all DLs (n=35)) was 1. For the same compound, the “Sudden death - NOS, patients” value (grade 5, DL7) was 1 and the “Death considered possibly related to treatment” value (one patient, DL7) was “grade 5 sudden death – NOS; also recorded: died of a pulmonary embolism”.
